{"source": "paper PMC10517462", "about": "“Small molecule targeting of the p38/Mk2 stress signaling pathways to improve cancer treatment” (BMC Cancer, 2023)", "key": {"[1]": {"parameters": "method as in PMID 26502061", "details": "cited from earlier work"}, "NCI-H69 xenograft": {"system": "NCI-H69 xenograft", "assay": "Tumor (xenograft) suppression with combination chemotherapy in SCID mice", "assay_type": "in vivo", "details": "for Tumor Volume (mm^3) median (25th and 75th quartile): VP-16 12 mg/kg", "procedure": "To establish the most suitable xenograft model for the main experiment we used two mouse lines – BALB/c Nude and SCID (both female, 6 weeks, n = 20, Charles River). Both mouse lines were injected with NCI-H69 cancer cells (xenograft). Before injection, cells were grown at 37 °C in RPMI-1640 medium containing 10% FBS and pen/strep. Cells were mixed with Matrigel (1:1) and depending on the group 5 × 10^6 or 10 × 10^6 cells were injected into a mouse subcutaneously along the spine to the level of the left scapula. Mice were divided into 4 groups: (1) 5 × 10^6 NCI-H69 SCID (n = 5); (2) 5 × 10^6 NCI-H69 Nude (n = 5); (3) 10 × 10^6 NCI-H69 SCID (n = 5); and (4) 10 × 10^6 NCI-H69 Nude (n = 5).\nThe main experiment (injection of the drugs) took place after the tumor growth was established. The tumor growth in mice following the injection of cells was monitored twice a week and upon reaching the volume of ~ 100 mm^3, animals were randomized into 5 groups (12 female SCID mice in each group). The drug treatment was performed as follows: the first group was a control and received a placebo in the form of PBS (tumor volume 95 ± 38 mm^3); the second group received 12 mg/kg of Etoposide (tumor volume 101 ± 51 mm^3); the third group was injected with 4 mg/kg of MK2.III (tumor volume 105 ± 44 mm^3); fourth and fifth groups were injected with 12 mg/kg of Etoposide and 4 mg/kg or 2 mg/kg of MK2.III (tumor volumes 112 ± 57 and 107 ± 49 mm^3 respectively). Drugs were injected intraperitoneally daily. Etoposide was injected 3 days after the randomization into groups and MK2.III was administered for 28 days. Tumor growth/suppression was measured using calipers every 3–4 days for the duration of the 28-day treatment and the tumor volume was calculated as follows:[…],\nAntitumor properties of drugs in the test group were determined based on the slowing of the tumor growth or tumor volume compared with the control group receiving PBS. Animal welfare was monitored throughout the study period to ensure that animals in distress were euthanized by carbon dioxide asphyxiation. All the animals were also euthanized by carbon dioxide asphyxiation following the completion of the study.\nDescriptive statistics were used to summarize the tumor size and data reported as medians and 25th and 75th quartiles. Wilcoxon sum rank test was used to investigate the effects of the treatments on tumor growth. […] Statistical analyses were performed on the SigmaPlot 11.0 software."}, "[2]": {"system": "SW480 colorectal cancer cell line", "assay": "CCK8 cell viability assay, SW480", "assay_type": "cell-based, human", "details": "MK2.III 1 µM alone, 24 h", "procedure": "(§1) To assess the effect of MK2.III kinase inhibitor and the etoposide (VP-16) on the viability of different cancer cell lines, cells were seeded in 96-well plates in a concentration of 5000 cells per well. After 12 h, etoposide and 1 μM MK2.III diluted in culture media were added into the wells for 24 h. NCI-H69 cells were exposed to a series of etoposide concentrations from 20 μM to 150 μM. MDA-MB-231, SW 620, and SW 480 cell lines were incubated with 150 μM etoposide. After treatment, 10 μL of the CCK-8 reagent (96992, Sigma) was added to each well for 1 h followed by optical density measurement at 450 nm using hybrid plate reader Synergy H1."}, "NCI-H69 cells": {"system": "NCI-H69 cells", "assay": "FACS-based (DRAQ7) viability assay", "assay_type": "cell-based, human", "procedure": "[…] Etoposide, SB203580 and MK2.III were all dissolved in 0.2% of DMSO before use. Cells treated only with the carrier molecule DMSO (0.2%) served as a control.\nViability analysis was performed by staining with the […], stoichiometric DNA stain DRAQ7 (640 or 633 nm excitation and 670 nm emission; Biostatus Limited). After 48-h treatment with DNA damaging agents and/or inhibitors, cells were washed once with RPMI 1640 and resuspended in 1 ml culture media at a concentration of less than 5 × 10^5/ ml. Cells were stained with 20 µM of DRAQ7 and incubated at 37 °C for 10 min before FACS Calibur cytometer analysis. Fluorescent signals were amplified using linear mode. Cell cycle analysis was performed either by staining DRAQ7 or Propidium Iodide (PI). Cells were stained with 20 µM of DRAQ7 and incubated at 37 °C for 10 min before analysis on a FACSCalibur cytometer. Propidium Iodide (PI, excited with 488 nm laser, collected with 585/52 bandpass filter) was used in the large-scale experiments. Samples were then fixed with 70% EtOH following the viability assay and stored at 4 °C overnight before the experiment. After fixation with 70% EtOH (added drop-wise) for 24 h, samples were centrifuged into the pellet and then washed twice with ice-cold PBS. The supernatant was discarded and pellets were resuspended in 100 µl of RNase A (100 µg/ml) and 400 µl of PI ([…] in PBS). Analysis of flow cytometry data was performed using FlowJo software. Untreated, unstained cells were used as a negative control to determine the location of viable cells on the dot plots. Events below a threshold size were interpreted as cellular debris and were removed from the dataset, leaving a whole cell population."}, "[3]": {"system": "MDA-MB-231 breast cancer cell line", "assay": "CCK8 cell viability assay, MDA-MB-231", "assay_type": "cell-based, human", "details": "MK2.III 1 µM or etoposide 150 µM alone, 24 h", "procedure": "as §1"}}, "data": [{"smiles": "O=C1NCCc2[nH]c(-c3ccnc(-c4cnc5ccccc5c4)c3)cc21", "note": "[MK2.III]", "values": [{"measurement": "Solubility", "setting": "[1]", "result": "poor solubility"}, {"measurement": "Difference in tumor size versus control", "setting": "NCI-H69 xenograft; at any checkpoint, etoposide 12 mg/kg, MK2.III 4 mg/kg, or etoposide + MK2.III 2 mg/kg", "result": "no significant difference"}, {"measurement": "Tumor Volume (mm^3) median (25th and 75th quartile)", "setting": "NCI-H69 xenograft; day 11 upon treatment, MK2.III 4 mg/kg IP daily", "result": "516 (401;703) mm^3"}, {"measurement": "Tumor Volume (mm^3) median (25th and 75th quartile)", "setting": "NCI-H69 xenograft; day 18 upon treatment, MK2.III 4 mg/kg IP daily", "result": "843 (712;1197) mm^3"}, {"measurement": "Tumor Volume (mm^3) median (25th and 75th quartile)", "setting": "NCI-H69 xenograft; day -1 upon treatment (baseline), MK2.III 4 mg/kg IP", "result": "106 (72;132) mm^3"}, {"measurement": "Effect of single agent on viability", "setting": "[2]", "result": "does not affect the viability"}, {"measurement": "Viable cells (%)", "setting": "NCI-H69 cells; Table 1 dose response, agent alone 0.321 µM (lowest dose), 48 h", "result": 87.4, "unit": "%"}, {"measurement": "Viable cells (%)", "setting": "NCI-H69 cells; Table 1 dose response, agent alone 0.626 µM, 48 h", "result": 90.2, "unit": "%"}, {"measurement": "Viable cells (%)", "setting": "NCI-H69 cells; Table 1 dose response, agent alone 1.25 µM, 48 h", "result": 87.3, "unit": "%"}, {"measurement": "Viable cells (%)", "setting": "NCI-H69 cells; Table 1 dose response, agent alone 2.5 µM, 48 h", "result": 88.4, "unit": "%"}, {"measurement": "Viable cells (%)", "setting": "NCI-H69 cells; Table 1 dose response, agent alone 5.0 µM (highest dose), 48 h", "result": 83.5, "unit": "%"}, {"measurement": "Viable cells (%)", "setting": "NCI-H69 cells; Table 2, VP-16 0 µM (inhibitor alone: MK2.III 1.0 µM or SB203580 2.5 µM), DMSO control 74.6%", "result": 66.1, "unit": "%"}, {"measurement": "Effect of single agent on viability", "setting": "[3]", "result": "does not affect the viability"}]}]}
